Data on six compounds can be found in US11034725B2, “Compositions and methods for treating cardiovascular disease” (Genentech, Inc., priority 2016, dated 2021).

Like-named read-outs stand apart in the source and are kept apart here. Bridge positions count the residues as written; N and C are the ends. Square brackets hold non-standard residues; d marks the D form. Peptide text beside a SMILES is read from it. Cit = NC(=O)NCCC[C@H](N)C(=O)O A value given as a limit tells only on which side of the number the result lay.

The target of one test is PCSK9 (Homo sapiens, UniProt Q8NBP7). The test is described as follows: PCSK9/EGF(A) TR-FRET binding assay. Conditions: TR-FRET; Table 8D, disulfide-cyclized extension peptides; read-out: PCSK9/EGF(A) IC50.
Sequence of PCSK9 (Q8NBP7 153-692): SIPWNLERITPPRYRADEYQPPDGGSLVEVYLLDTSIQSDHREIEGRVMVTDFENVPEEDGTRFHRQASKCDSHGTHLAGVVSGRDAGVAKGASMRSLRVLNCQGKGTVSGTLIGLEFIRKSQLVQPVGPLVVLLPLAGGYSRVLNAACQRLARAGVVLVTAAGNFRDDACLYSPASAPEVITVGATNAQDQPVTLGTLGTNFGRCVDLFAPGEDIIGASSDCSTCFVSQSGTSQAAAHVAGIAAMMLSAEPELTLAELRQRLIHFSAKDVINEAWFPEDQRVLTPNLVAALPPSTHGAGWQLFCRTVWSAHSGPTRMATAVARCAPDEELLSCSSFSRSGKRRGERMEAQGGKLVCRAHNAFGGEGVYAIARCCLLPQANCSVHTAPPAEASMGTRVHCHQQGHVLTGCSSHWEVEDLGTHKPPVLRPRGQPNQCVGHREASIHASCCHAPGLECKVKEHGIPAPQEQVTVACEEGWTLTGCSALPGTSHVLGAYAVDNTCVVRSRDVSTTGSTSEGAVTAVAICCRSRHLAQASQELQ
Sequence of PCSK9 (Q8NBP7 31-152 partner limits assumed): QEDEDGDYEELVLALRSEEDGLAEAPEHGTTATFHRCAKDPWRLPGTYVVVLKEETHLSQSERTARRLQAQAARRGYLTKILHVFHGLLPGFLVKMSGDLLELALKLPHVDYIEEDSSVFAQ
The next test addresses T1, PCSK9Δhelix (Homo sapiens, UniProt Q8NBP7).
T1 construct: Human PCSK9 construct M1-Q692 with an engineered TEV site (residue deletion Y166, R167); made in house; host or cells: CHO
The test is described as follows: PCSK9Δhelix/Ab20 TR-FRET binding assay. Conditions: TR-FRET, read-out: PCSK9Δhelix/Ab20 IC50.

Another test relates to His-EGF(A)-Fc. Nature of the test: His-EGF(A)-Fc TR-FRET counterscreen. The conditions noted are these: TR-FRET counterscreen; Table 8D; * = some inhibition at highest concentrations, not sufficient to fit an IC50.
[1] abbreviates: Table 8D, disulfide-cyclized extension peptides.

T1 sequence (Q8NBP7 with tags, fused parts or gaps limits assumed): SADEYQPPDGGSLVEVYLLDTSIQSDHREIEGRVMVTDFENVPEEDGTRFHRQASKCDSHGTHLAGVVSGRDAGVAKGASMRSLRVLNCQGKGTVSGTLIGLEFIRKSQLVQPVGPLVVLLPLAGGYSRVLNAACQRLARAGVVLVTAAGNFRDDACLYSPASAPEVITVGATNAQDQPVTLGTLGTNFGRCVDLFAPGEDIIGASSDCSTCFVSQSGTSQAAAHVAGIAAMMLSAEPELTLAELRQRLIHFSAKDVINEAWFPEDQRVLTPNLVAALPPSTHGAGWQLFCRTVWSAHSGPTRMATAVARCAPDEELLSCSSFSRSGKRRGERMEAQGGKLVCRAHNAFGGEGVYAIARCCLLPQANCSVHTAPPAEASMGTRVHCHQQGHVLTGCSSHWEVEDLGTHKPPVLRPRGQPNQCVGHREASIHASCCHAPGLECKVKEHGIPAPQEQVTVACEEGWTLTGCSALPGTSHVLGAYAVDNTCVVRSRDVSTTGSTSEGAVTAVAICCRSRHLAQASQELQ
T1 sequence (Q8NBP7 31-152 partner limits assumed): as the sequence (Q8NBP7 31-152 partner limits assumed) above

Regarding `CC[C@H](C)[C@@H]1NC(=O)[C@H](CCCNC(=N)N)NC(=O)[C@H](CCC(N)=O)NC(=O)[C@H](CC(C)C)NC(=O)[C@H](CC(N)=O)NC(=O)[C@H](Cc2c[nH]c3ccccc23)NC(=O)[C@@H]2CCCN2C(=O)[C@H](CC(C)C)NC(=O)[C@H](CCCNC(=N)N)NC(=O)[C@@H](NC(=O)CNC(=O)[C@H](CO)NC(C)=O)CSSC[C@@H](C(N)=O)NC(=O)[C@@H]2CCCN2C(=O)[C@H](CC(C)C)NC(=O)CNC1=O` [Compound 30] (Ac-SGCRLPWNLQRIGLPC-NH2; disulfide 3-16), the IC50 at PCSK9 was greater than 50 µM; at PCSK9Δhelix (setting [1]), 0.95 µM; with His-EGF(A)-Fc it was greater than 50 µM.

In the case of `CC[C@H](C)[C@@H]1NC(=O)[C@H](CCCNC(N)=O)NC(=O)[C@H](CCC(N)=O)NC(=O)[C@H](CC(C)C)NC(=O)[C@H](CC(N)=O)NC(=O)[C@H](Cc2c[nH]c3ccccc23)NC(=O)[C@@H]2CCCN2C(=O)[C@H]([C@@H](C)CC)NC(=O)[C@H](Cc2ccccc2)NC(=O)[C@@H](NC(=O)CNC(=O)[C@H](CO)NC(C)=O)CSSC[C@@H](C(N)=O)NC(=O)[C@@H]2CCCN2C(=O)[C@H](CC(C)C)NC(=O)CNC1=O` [Compound 36] (Ac-SGCFIPWNLQ[Cit]IGLPC-NH2; disulfide 3-16), the IC50 on PCSK9, on PCSK9Δhelix (setting [1]) and in the test with His-EGF(A)-Fc was greater than 50 µM in each case.

`CC[C@H](C)[C@@H]1NC(=O)[C@H](CCCNC(=N)N)NC(=O)[C@H](CCCCN)NC(=O)[C@H](CC(C)C)NC(=O)[C@H](CC(N)=O)NC(=O)[C@H](Cc2c[nH]c3ccccc23)NC(=O)[C@@H](NC(C)=O)CSSC[C@@H](C(=O)N[C@@H](Cc2c[nH]c3ccccc23)C(N)=O)NC(=O)CNC(=O)[C@H](CCC(N)=O)NC(=O)[C@H](CO)NC(=O)CNC1=O` [Compound 39] (Ac-CWNLKRIGSQGCW-NH2; disulfide 1-12): the IC50 was greater than 50 µM on PCSK9, 37.5 µM at PCSK9Δhelix (setting [1]) and greater than 50 µM with His-EGF(A)-Fc.

`CC[C@H](C)[C@@H]1NC(=O)[C@H](CCCNC(=N)N)NC(=O)[C@H](CCCCN)NC(=O)[C@H](CC(C)C)NC(=O)[C@H](CC(N)=O)NC(=O)[C@H](Cc2c[nH]c3ccccc23)NC(=O)[C@H](CC(C)C)NC(=O)[C@@H](NC(=O)[C@H](CC(=O)O)NC(C)=O)CSSC[C@@H](C(=O)N[C@@H](CCC(=O)O)C(=O)N[C@@H](Cc2ccc(O)cc2)C(N)=O)NC(=O)[C@H](CCC(N)=O)NC(=O)[C@H](CO)NC(=O)CNC1=O` [Compound 64] (Ac-DCLWNLKRIGSQCEY-NH2; disulfide 2-13): the IC50 at PCSK9, on PCSK9Δhelix (setting [1]) and in the test with His-EGF(A)-Fc was greater than 50 µM each time.

Take `CC[C@H](C)[C@@H]1NC(=O)[C@H](CCCNC(=N)N)NC(=O)[C@H](CCCCN)NC(=O)[C@H](CC(C)C)NC(=O)[C@H](CC(N)=O)NC(=O)[C@H](Cc2c[nH]c3ccccc23)NC(=O)[C@H](CC(C)C)NC(=O)[C@@H](NC(=O)[C@H](Cc2c[nH]c3ccccc23)NC(C)=O)CSSC[C@@H](C(=O)N[C@@H](CCC(=O)O)C(=O)N[C@@H](Cc2ccc(O)cc2)C(N)=O)NC(=O)[C@H](CCC(N)=O)NC(=O)[C@H](CO)NC(=O)CNC1=O` [Compound 65] (Ac-WCLWNLKRIGSQCEY-NH2; disulfide 2-13): the values for the IC50 at PCSK9, at PCSK9Δhelix (setting [1]) and in the test with His-EGF(A)-Fc were greater than 50 µM, 7.1 µM and greater than 50 µM, respectively.

In the case of `CC[C@H](C)[C@@H]1NC(=O)[C@H](CCCNC(=N)N)NC(=O)[C@H](CCCCN)NC(=O)[C@H](CC(C)C)NC(=O)[C@H](CC(N)=O)NC(=O)[C@H](Cc2c[nH]c3ccccc23)NC(=O)[C@@H]2CCCN2C(=O)[C@H](CC(C)C)NC(=O)[C@H](CCCNC(=N)N)NC(=O)[C@@H](NC(C)=O)CSSC[C@@H](C(N)=O)NC(=O)[C@@H]2CCCN2C(=O)[C@H](CC(C)C)NC(=O)CNC1=O` [Compound 67] (Ac-CRLPWNLKRIGLPC-NH2; disulfide 1-14), the IC50 was greater than 50 µM on PCSK9, 0.7 µM on PCSK9Δhelix (Example 7), 0.699 µM at PCSK9Δhelix (setting [1]) and greater than 50 µM in the test with His-EGF(A)-Fc.
